Results on twelve compounds are retold here after PMC4159583, “Evaluation of the Interaction between Phosphohistidine Analogues and Phosphotyrosine Binding Domains” (Chembiochem, 2014).

In general, pKa refers to the negative logarithm of the acid dissociation constant. As a reminder, the Kd is the free concentration of one partner at which half of the binding sites on the other are occupied at equilibrium, for simple one-to-one binding. The IC50 is the concentration at which inhibition is half-maximal. Low readings indicate greater potency, high ones weaker potency.

A short description of series [1]: pKa determination by 31P NMR pH titration. It is filed as physicochemical. On the procedure: NMR data were collected using a Bruker DPX300 and analysed using MestReNova software. Experiments were carried out 121 MHz using peptide S1 or S2 at a concentration of 10 mM in 10% D2O in H2O (v/v, 2 mL) with an external standard of tris-carboxyethyl phosphine (TCEP) in H2O with a δ value set at 16.30 ppm.5 The pH of the solution was measured and adjusted by addition of 100 mM NaOH in 10% D2O in H2O (v/v) in portions of 5 µL. At higher pH values significant signal-broadening was observed, which precluded accurate determination of chemical shifts and such results were not included in calculations to determine pKa’s. The pKa was determined by fitting the observed chemical shift data to a Boltzmann distribution yielding pKas of ~5.8 for pTyr and 5.95 for the phosphotriazole analogue.
Equation )/(1 + exp((x-x0)
)/(1 + exp((x-x0) Chi-Sqr
Reduced Chi-S 0.00117 Value Standard Error
Figure S10. pH titrations of peptides S1 and S2 containing phosphotyrosine (S1, left) and phosphonotriazole (S2, right) 5Determined by a preliminary experiment using TCEP with an external standard of phosphoric acid (with a shift assigned as 0.00 ppm).
(also on this page, place not known: DPX3 00 software . usin g D 2O H 2O ppm. ad justed H 2O ( v/v) 5 signal-broa dening includ ed 31 P Chemical /ppm 0.01607 0.4 31 P Chemical shift /ppm shift)

In series [2] the target is Grb2 SH2 domain. The note with it: cited from earlier work. From the text:
We envisaged producing suitable peptides by Fmoc-SPPS and investigating the interaction with proteins known to bind to phosphotyrosine. Our initial test system was the prototypical SH2 phosphotyrosine binding domain from Grb2.[19] […] A)15% SDS-PAGE: Lane 1 - MW markers, 2 & 3 –flow through Ni-NTA column of soluble fraction, 4 & 5 – elution of soluble fraction from Ni-NTA column, 6 – MW markers, 7 – insoluble fraction. B) 15% SDS-PAGE: Lane 1 - MW markers, 2 - insoluble fraction ...

The target of series [3] is T1, His6-(Grb2-SH2) (Homo sapiens, UniProt P62993).
T1 construct: His6-(Grb2-SH2), 13132 Da; made in house
The series is described as follows: Competition fluorescence anisotropy/polarisation assay (displacement of 17). It is filed as binding. The settings on record: for competition / displacement of 17: 200 nM 17 and 175 nM Grb2-SH2, serial dilutions of peptide, pH 7.4. On the procedure: (§1) Fluorescence polarization experiments
(§2) Peptides were prepared as described above. Fluorescence polarization assays were carried out in 96 well plates (160 µL per well). All experiments were performed in 50 mM Tris.HCl, 100 mM NaCl pH 7.4 (ITC buffer). 2.5-fold or 3-fold dilution series of each peptide were routinely prepared before mixing in the plate well before data acquisition using a Perkin Elmer EnVision™ 2103 MultiLabel plate reader
(§3) Determination of binding of FITC-pY peptide 17 to Grb2-SH2 domain
(§4) Grb2-SH2 was serially diluted through ITC buffer containing 100 nM peptide 17 in triplicate and the fluorescence measured in parallel and perpendicular channels. The instrumental G factor for each experiment was approximated by assuming the anisotropy r = 0 for the free peptide. For each data point the total intensity I and anisotropy r were then determined by application of equations 3 and 4 below. Data were fit using a logistic model to obtain limiting maximum and minimum values […]
(§5) upon binding of the protein and the fraction bound was therefore calculated using equation 5 where λ = Ibound/Ifree. The fraction […]
(§6) IT = Iparallel+ 2GI perpendicular (3) r = Iparallel− GI perpendicular (4)
(§7) F = r − rmin where R = Ibound (5) […]
Competition binding assay […]
fitting using a logistic model to obtain an IC50 value.
(In fluorescence polarisation assays a small probe gives low polarisation when free and higher when bound to something large.)

The target of series [4] is T2, full-length Grb2 purified as a glutathione S-transferase (GST) fusion (GST-Grb2) (Homo sapiens, UniProt P62993).
T2 construct: made in house; host or cells: E. coli BL21-Gold (DE3)
Put plainly: ITC of peptides into full-length GST-Grb2. It counts as binding. From the text:
Protein expression and purification
Isothermal Titration Calorimetry (ITC)

For series [5], the target named is T3, monomeric His6-(Grb2-SH2), Grb2 SH2 domain (Homo sapiens, UniProt P62993).
T3 construct: His6-(Grb2-SH2), 13132 Da; made in house
T3 sequence (P62993 with tags, fused parts or gaps): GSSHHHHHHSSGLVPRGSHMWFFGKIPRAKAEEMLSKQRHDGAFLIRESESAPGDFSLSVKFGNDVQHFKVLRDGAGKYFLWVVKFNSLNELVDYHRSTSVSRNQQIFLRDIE
Put plainly: ITC of peptides into monomeric His6-(Grb2-SH2) (late-eluting SEC peak 2). It is filed as binding. The note with it: for ITC outcome, standard conditions: final ratio of ligand to protein 2:1. From the text: (3 pictures or pasted objects on this page, not shown here)
(5 pictures or pasted objects on this page, not shown here)

Series [6] concerns the target T1, His6-(Grb2-SH2). The series is described as follows: Fluorescence anisotropy direct binding of FITC-pY peptide 17. The settings on record: 100 nM peptide 17, Grb2-SH2 serially diluted, triplicate; 50 mM Tris.HCl, 100 mM NaCl pH 7.4; fraction bound corrected for quenching; read-out: binding constant (Kd) by fluorescence anisotropy. The protocol: as §1, §2, §3, §4, §5, §6, §7
Competition binding assay
Grb2-SH2. […]
Target sequence in this assay (P62993 with tags, fused parts or gaps): as above

Series [7] has as its system Grb2 SH2 domain. The series is described as follows: Literature affinities for Grb2-SH2. It is filed as binding. The note with it: cited tripeptide Kd compared with own Kd of 11.

Like-named read-outs stand apart in the source and are kept apart here. *1 amine or outer side, *2 acyl side, *3 side chain or, on linkers, in order; H or OH if unused. Where a SMILES comes first, the peptide text is derived from it. [ ]: non-standard residue; d: D form. The star is where a group is joined. X2 = O=C(O)c1cc(NC(=S)*)ccc1-c1c2ccc(=O)cc-2oc2cc(O)ccc12; X1 = O=C([C@H](Cn1cc(P(=O)(O)O)nn1)N[*:1])[*:2]; pY = N[C@@H](Cc1ccc(OP(=O)(O)O)cc1)C(=O)O; phTz = not defined here; GABA = NCCCC(=O)O

As to `C[C@H](NC(=O)CNC(=O)[C@H](C)NC(=O)CNC(=O)[C@H](Cc1ccc(OP(=O)(O)O)cc1)NC(=O)CNC(=O)[C@H](C)NC(=O)CNC(=O)[C@H](C)NC(=O)CNC(=O)[C@@H](N)CS)C(=O)NCC(=O)O` [S1, H-Cys-Gly-Ala-Gly-Ala-Gly pTyr-Gly-Ala-Gly-Ala-Gly-OH] (H-CGAGAG[pY]GAGAG-OH), the pKa in series [1] (31P NMR 121 MHz, peptide 10 mM in 10% D2O in H2O, titrated with 100 mM NaOH, Boltzmann fit of chemical shift) was ~ 5.8.
In series [1] (NMR titrations (of peptides containing the residue), phosphoryl group), `N[C@@H](Cc1ccc(OP(=O)(O)O)cc1)C(=O)O` [compound 4, phosphotyrosine] registered a pKa of 5.8.
`CC(=O)N[C@@H](CO)C(=O)N[C@@H](Cc1ccc(OP(=O)(O)O)cc1)C(=O)N[C@H](C(=O)N[C@@H](CC(N)=O)C(=O)N[C@H](C(=O)N[C@@H](CCC(N)=O)C(N)=O)C(C)C)C(C)C` [compound 11, AcHN-Ser-pTyr-Val-Asn-Val-Gln-NH2, reference compound] (Ac-S[pY]VNVQ-NH2): the dissociation constant (Kd) is 200 nM on Grb2 SH2 domain [2] (literature value for Shc-derived hexapeptide, read-out: Kd for Grb2 SH2 domain) and 196 ± 21 nM in series [4]. This compound gave an IC50 on His6-(Grb2-SH2) [3] of 442 ± 80 nM. For the same compound, on His6-(Grb2-SH2) [3], the “competition / displacement of 17” value was “Binding (displacement of 17) was observed”.
For `CC(=O)N[C@@H](CO)C(=O)N[C@@H](Cn1cc(P(=O)(O)O)nn1)C(=O)N[C@H](C(=O)N[C@@H](CC(N)=O)C(=O)N[C@H](C(=O)N[C@@H](CCC(N)=O)C(N)=O)C(C)C)C(C)C` [compound 16, AcHN-Ser-pTz-Val-Asn-Val-Gln-NH2] (Ac-S[X1]VNVQ-NH2), the “ITC outcome, standard conditions” value in series [5] is “inconclusive”. For the same compound, the “competition / displacement of 17” value on His6-(Grb2-SH2) [3] is on record as “Binding (displacement of 17) was observed”.
As for `CC(C)[C@H](NC(=O)[C@H](CC(N)=O)NC(=O)[C@@H](NC(=O)[C@H](Cc1ccc(OP(=O)(O)O)cc1)NC(=O)[C@H](CO)NC(=O)CCCNC(=S)Nc1ccc(-c2c3ccc(=O)cc-3oc3cc(O)ccc23)c(C(=O)O)c1)C(C)C)C(=O)N[C@@H](CCC(N)=O)C(N)=O` [compound 17, FITC-Gaba-Ser-pTyr-Val-Asn-Val-Gln-NH2] ({X2-GABA}-S[pY]VNVQ-NH2), the Kd at His6-(Grb2-SH2) [6] was determined as 283 ± 18 nM.
For the compound “AcHN-Ser-His-Val-Asn-Val-Gln-NH2 [compound 19]”, on His6-(Grb2-SH2) [3], the “competition / displacement of 17” value was “No competition”.
The same measure, in the same setting: to “AcHN-Ser-Tyr-Val-Asn-Val-Gln-NH2 [compound 18]” belongs “No competition”; to “AcHN-Ser-pSer-Val-Asn-Val-Gln-NH2 [compound 20]”, “No competition”; to “AcHN-Ser-pThr-Val-Asn-Val-Gln-NH2 [compound 21]”, “No competition”.
In the case of “AcHN-Ser-phTz-Val-Asn-Val-Gln-NH2 ({Ac-Ser-phTz}-VNVQ-NH2; reading uncertain; also: printed as AcHN-Ser-phTz-Val-Asn-Val-Gln-NH2) [compound 15]”, in series [5] (low c-value conditions, final ratio of ligand to protein 8:1, indistinguishable from titration into buffer), the “ITC binding outcome, low c-value” is on record as “no binding”. Besides, in series [5], the “ITC outcome, standard conditions” value was “inconclusive”. In the series with His6-(Grb2-SH2) [3], the “competition / displacement of 17” value is on record as “No competition”. For the same compound, in series [4] (ITC, peptide titrated into GST-Grb2, 25 °C, ITC buffer pH 7.4), the “ITC titration outcome” value is recorded as “inconclusive”.
For the compound “AcHN-pTyr-Val-Asn-NH2 [literature control tripeptide for Grb2-SH2]”, the “fold lower affinity for monomeric Grb2-SH2 than hexapeptide 11” value in the series with Grb2 SH2 domain [7] is recorded as ~ 5 fold. Moreover, the Kd on Grb2 SH2 domain [2] (literature control tripeptide, main article, read-out: Kd for monomeric Grb2-SH2) is 1600 nM.
In series [1], “H-Cys-Gly-Ala-Gly-Ala-Gly pTz-Gly-Ala-Gly-Ala-Gly-OH [S2]” displayed a pKa of 5.95.
